Data published in patent publication US20120157419A1, “METHODS AND COMPOSITIONS FOR TREATING ALZHEIMER'S DISEASE” (priority 2009, published 2012).

How the values were obtained:
[1] = 14C-Aramchol radioactivity in the brain of rats after oral administration; format: in vivo, male Wistar rats; settings: for Radioactivity in brain tissues: rat brain homogenate
Protocol: Male Wistar rats weighing 200-250 gm received a single gavage administration of ^14C-labeled-Aramchol (suspended in 0.3 ml saline), at a target dose level of 16 μCi/ml (40 μCi/kg). Aramchol is also known as “3beta-arachidyl amido, 7α,12α-dihydroxy-5-beta-cholan-24-oic acid” or “C-20 FABAC,” an amide conjugate (at position 3 of the bile acid) of arachidic and cholic acids. Groups of 3 animals were sacrificed following gavage, using ketamine anesthesia, at 3, 12, 24 or 72 hours.
Brain tissue samples were excised, homogenized in ice-cold 5M guanidine thiocyanate/HCl, pH 8, and rotated at room temperature for 4 h. Homogenates were stored at −80° C. Brain homogenates were diluted and centrifuged, and the ^14C-label was detected by mixing samples with scintillation fluid and reading in a liquid scintillation counter.

[2] = Aramchol plasma levels after single oral ascending doses in normal human volunteers; format: in vivo
Protocol: To 200 μL of each plasma sample, calibrator, and QC sample were added 20 μL of 2.5 μg/mL internal standard solution in 1:1 methanol:water followed by 50 μl, of 5% acetic acid and 2 mL of methyltertbutylether. The samples were mixed on a rotating shaker for 5 minutes and centrifuged. After centrifugation, the aqueous layer of the samples was frozen and the upper (organic) layer was transferred to evaporation tubes and evaporated to dryness under a gentle stream of N2 at ˜40° C. The samples were then reconstituted in 200 μL of 5:4:1 methanol:acetonitrile:20 mM ammonium acetate, mixed, and centrifuged. 100 μL of the clear upper solution was transferred to auto-sampler vials and analyzed by UPLC-MS/MS using a Waters Acquity UPLC BEH C18, 50×2.1 mm, 1.7μ column. A sample blank (blank plasma) and reagent blank (water) were also prepared, but without internal standard added (1:1 methanol:water added instead).
Normal human volunteers (n=12) ingested Aramchol in a formulation containing sodium lauryl sulfate and carboxy methyl cellulose, in a single dose containing 30, 100, 300, or 900 mg of Aramchol. Blood was sampled at 0, 1, 3, 4, 6, 9, 12, 18, 24, 36, 48, and 72 hours following ingestion. Aramchol blood levels were measured by a mass spectroscopy-based method (Goldiner et al., J Chromatogr B Analyt Technol Biomed Life Sci 2003; 795: 35-40). Aramchol plasma levels were measurable at all doses and were dose-proportional.

[3] = test system: human astrocyte cells (ccf-sttg1 cell line); assay: Cholesterol efflux from a human astrocyte cell line; format: cell-based; settings: for Concentration evoking maximal cholesterol efflux / Concentration of maximal effect on cholesterol efflux: 20 hr incubation, [3H]cholesterol-loaded ccf-sttg1 cells
Protocol: Human astrocyte cells (1×10^6 cells/ml; ccf-sttg1 cell line) were incubated in 24 plates for 24-48 hours in 10% FCS (Fetal Calf Serum) in DMEM (Dulbecco's modified Eagle's Media) in a humidified 37° C. incubator in the presence of 7.5% CO2. After the incubation time Cholesterol loading was performed by incubating the cells for 20 hr with DMEM supplemented with 30 μg/ml cholesterol, 0.5 μCi/ml of [^3H]cholesterol and 0.2% fatty-acid-free BSA (Bovine Serum Albumin). After incubation, the cells were washed four times with PBS (Phosphate Buffered Saline) containing 0.2% fatty-acid-free BSA. Cells were then incubated for 20 hr in a humidified incubator at 37° C. in the presence of 10% CO2, with or without apolipoproteins (ApoE) or FABACs (Aramchol or Steamchol) at several concentrations. The medium was collected and centrifuged at 12000 g for 5 min to remove cellular debris. The aliquots of the supernatant were taken to count the effluxed [^3H]cholesterol. The remaining cell-associated [^3H]cholesterol was determined after extraction for at least 30 min with propan-2-ol. Efflux was determined in the presence, or absence, of apolipoproteins or FABACs. FABACs were dissolved in ethanol and added to the medium at the concentrations indicated. The amount of [^3H]cholesterol in the medium and cellular extract was quantified by liquid-scintillation counting. The radioactivity released into the medium was expressed as the fraction of the total radioactive cholesterol that was present in the supernatant of each well. The percentage efflux was calculated by dividing the radioactive counts in the efflux medium by the sum of the counts in the medium and cell extract.
Astrocyte brain cells (ccf-sttg1 cell line) were maintained under the same conditions as above (Example 3) and the effect of the 2 physiological stimulants ApoE3 and ApoE4 was tested. […] FABACs evoked a maximal cholesterol efflux at the concentrations of 2 microgram/ml (Steamchol) and 5 microgram/ml (Aramchol) while the apolipoproteins reached a maximal effect at the concentration of 10 microgram/ml. Furthermore, at the above concentrations, the % of cell cholesterol removed into the medium was about 25% higher with the FABACs as compared to the apolipoproteins. Note that the control efflux induced by the medium only is equal in both sets of experiments. The efflux at concentrations of 20 microgram/ml is problematic, since cell damage occurs at this concentration.

Row | SMILES | Radioactivity in brain tissues ([1]; 3 hr after single gavage of 14C-labeled Aramchol (40 μCi/kg)) | Radioactivity in brain tissues ([1]; 12 hr after single gavage of 14C-labeled Aramchol (40 μCi/kg)) | Time at which brain radioactivity disappeared ([1]; single gavage, rats) | Time of peak radioactivity in brain ([1]; single gavage, rats) | Time radioactivity first detected in brain ([1]; single gavage, rats) | Aramchol plasma level at 24 hr ([2]; 24 hr after a single ingestion, human) | Aramchol plasma level at 36 hr ([2]; 36 hr after a single ingestion, human) | Time blood levels remain high ([2]; after a single administration, humans) | Aramchol plasma levels versus dose ([2]; single oral dose 30-900 mg, human plasma) | Cholesterol efflux at 2 μg/ml ([3]; 2 μg/ml, compared with 5-10 μg/ml) | Cholesterol efflux at 20 μg/ml ([3]; 20 μg/ml, compared with 5-10 μg/ml) | Concentration evoking maximal cholesterol efflux [3] | Concentration of maximal effect on cholesterol efflux [3] | Effect on cholesterol efflux ([3]; ccf-sttg1 cells, versus medium) | Potency on cholesterol efflux relative to comparator ([3]; ccf-sttg1 cells)
1 | CCCCCCCCCCCCCCCCCCCC(=O)N[C@H]1CC[C@@]2(C)[C@@H](C1)C[C@@H](O)[C@@H]1[C@@H]2C[C@H](O)[C@]2(C)[C@@H]([C@H](C)CCC(=O)O)CC[C@@H]12 [Aramchol, 3β-arachidylamido-7α,12α, dihydroxy 5β-cholan-24-oic acid] | 0.15 cpm/mg tissue | 0.32 cpm/mg/tissue | ~24 h | 12 h | 3 h | high Aramchol levels | substantial levels | over 24 hours | dose-proportional | Lower efflux levels | decrease in cholesterol efflux | 5 microgram/ml | 5 to 10 µg/mL | increased cholesterol efflux | –
2 | CCCCCCCCCCCCCCCCCC(=O)N[C@H]1CC[C@@]2(C)[C@@H](C1)C[C@@H](O)[C@@H]1[C@@H]2C[C@H](O)[C@]2(C)[C@@H]([C@H](C)CCC(=O)O)CC[C@@H]12 [Steamchol, 3β-stearoylamido-7α,12α-dihydroxy-5β-cholan-24-oic acid] | – | – | – | – | – | – | – | – | – | – | – | 2 microgram/ml | 2 µg/mL | – | higher potency than Aramchol
